# Measurements as given in US20150150769A1, “COSMETIC COMPOSITIONS COMPRISING DITERPENOIC ACIDS, E.G. GIBBERELLIC ACIDS” (Cutech S.r.L., priority 2011, published 2015).
# Assays:
# [1] = system: Human anagen hair follicles; experiment: Growth (elongation) of cultured isolated human hair follicles; assay type: cell-based
# Procedure: (§1) Human anagen hair follicles were isolated from scalp skin taken from a single donor and transferred for cultivation in sterile 24 well plates using a modified Williams' Medium E. Cultivation took place for nine days, while the experimental treatment of the follicles started 24 hours from the beginning of the cultivation. Hair follicles were selected for the experiments after 18 h of cultivation. Only follicles showing a good vital stage and a growth of not less than 0.2 mm were considered suitable to be maintained in culture. All experimental groups and the control group were prepared by including 12 follicles, plated in 24 well plates at a density of 3 hair follicles (HFs) per well. […] The growth of the hair follicles was studied by performing image analyses on microphotographs. All hair follicles were photographed at day 5 of culture (day 4 of treatment) and then at day 9 of culture (day 8 of treatment).
# [2] = system: Human anagen hair follicles; experiment: Histological analysis of hair follicles (anagen/catagen stage, dermopapilla morphology); assay type: cell-based; conditions: for Anagen phase / Catagen phase: after 9 days of cultivation
# Procedure: as §1
# The experiment according to Examples 1 to 3 was terminated after 9 days of cultivation. Subsequently, the hair follicles were subjected to histological analysis by staining with haematossilin and eosin in order to verify the morphological state of the dermopapilla.
compound,measurement,setting,value
"C=C1C[C@]23C[C@@]1(O)CC[C@H]2[C@@]12C=C[C@H](O)[C@@](C)(C(=O)O1)[C@H]2[C@@H]3C(=O)O [Gibberellin, Gibberellic acid]",inhibition at 1 µg/mL,"[1]; Homo sapiens, Examples 1-3, 1 μg/ml, P<0.01, read-out: inhibitory action on hair growth in comparison with the untreated sample",19%
same,"Growth of hair follicles: Elongation performance, Average","[1]; Table 1, Examples 1-3, 0.01 μg/ml, day 9 of culture",88.2 ± 7.0 percentage of the control group
same,"Growth of hair follicles: Elongation performance, Average","[1]; Table 1, Examples 1-3, 0.1 μg/ml, day 9 of culture",85.6 ± 5.4 percentage of the control group
same,"Growth of hair follicles: Elongation performance, Average","[1]; Table 1, Examples 1-3, 1.0 μg/ml, day 9 of culture",80.6 ± 5.4 percentage of the control group
same,"Growth of hair follicles: Elongation performance, Average","[1]; Table 2, Examples 4-6, 0.01 μg/ml, 9 days of cultivation",81.4 ± 5.9 percentage of the control group
same,"Growth of hair follicles: Elongation performance, Average","[1]; Table 2, Examples 4-6, 0.1 μg/ml, 9 days of cultivation",89.8 ± 8.0 percentage of the control group
same,"Growth of hair follicles: Elongation performance, Average","[1]; Table 2, Examples 4-6, 1.0 μg/ml, 9 days of cultivation",82.7 ± 6.6 percentage of the control group
same,"Growth of hair follicles: Elongation performance, Average","[1]; Table 3, Examples 7-8, 0.1 μg/ml, 9 days of cultivation",76.6 ± 4.3 percentage of the control group
same,"Growth of hair follicles: Elongation performance, Average","[1]; Table 3, Examples 7-8, 1.0 μg/ml, 9 days of cultivation",69.9 ± 3.2 percentage of the control group
same,"Growth of hair follicles: Elongation performance, Average","[1]; Table 4, Examples 9-10, 0.1 μg/ml, 9 days of cultivation",77.7 ± 5.8 percentage of the control group
same,"Growth of hair follicles: Elongation performance, Average","[1]; Table 4, Examples 9-10, 1.0 μg/ml, 9 days of cultivation",72.3 ± 4.9 percentage of the control group
same,"Growth of hair follicles: Elongation performance, Average","[1]; Table 5, Examples 11-12, 0.1 μg/ml, 9 days of cultivation",91.3 ± 4.7 percentage of the control group
same,"Growth of hair follicles: Elongation performance, Average","[1]; Table 5, Examples 11-12, 1.0 μg/ml, 9 days of cultivation",79.9 ± 5.9 percentage of the control group
same,effect on decline of the hair follicles into the catagen phase,"[2]; Examples 13-14, 0.1 and 1 μg/ml, result in words",significantly anticipated the decline into the catagen phase
same,Anagen phase,"[2]; Table 6, Example 13, 0.1 μg/ml",22.2
same,Catagen phase,"[2]; Table 6, Example 13, 0.1 μg/ml",77.8
same,Anagen phase,"[2]; Table 6, Example 14, 1 μg/ml",9.1
same,Catagen phase,"[2]; Table 6, Example 14, 1 μg/ml",90.9
Gibberellic acid [Gibberellin],change of hair follicle growth in comparison to the control group,"[1]; Examples 7-8, 1 μg/ml, P<0.001",−30.1%
same,change of hair follicle growth in comparison to the control group,"[1]; Examples 9-10, 1 μg/ml, P<0.001",−27.7%
same,change of hair follicle growth in comparison to the control group,"[1]; Examples 11-12, 1 μg/ml, P<0.01",−20%
same,reduction of hair growth in comparison to the control group,"[1]; Examples 11-12, depending on the treatment dosage (0.1-1.0 μg/ml)",up to 20%
